{"source": "patent US9066949B2", "about": "“Compositions and methods for the treatment of catatonia” (priority 2011, dated 2015)", "key": {"[1]": {"test_system": "clinical effects of ketamine, an NMDA receptor antagonist", "settings": "in vivo; cited from earlier work"}, "catatonic features": {"test_system": "catatonic features", "assay": "Bush-Francis Catatonia Rating Scale (BFCRS) assessment of patients before and after treatment", "type": "in vivo, human", "text": "This assessment tool, in conjunction with clinical observation, can be used to identify the severity of catatonia and track improvements with medication adjustments. Studies discussed herein focused on subjects in both secure and nonsecure residential settings."}, "[2]": {"settings": "on average, subjects with schizophrenic disorders; cited from earlier work"}}, "data": [{"smiles": "Cc1nc2n(c(=O)c1CCN1CCC(c3noc4cc(F)ccc34)CC1)CCCC2", "note": "[risperidone]", "values": [{"measurement": "effect on the clinical effects of ketamine", "setting": "[1]", "result": "do not impact the effects of ketamine"}]}, {"smiles": "O=C(CCCN1CCC(O)(c2ccc(Cl)cc2)CC1)c1ccc(F)cc1", "note": "[haloperidol]", "values": [{"measurement": "effect on the clinical effects of ketamine", "setting": "[1]", "result": "do not impact the effects of ketamine"}]}, {"smiles": "Cc1cc2c(s1)Nc1ccccc1N=C2N1CCN(C)CC1", "note": "[olanzapine, 2-methyl-4-(4-methyl-1-piperazinyl)-10H-thieno[2,3-b][1,5]benzodiazepine]", "values": [{"measurement": "effect on the clinical effects of ketamine", "setting": "[1]", "result": "reverse the clinical effects of ketamine"}]}, {"smiles": "Nc1nnc(-c2cccc(Cl)c2Cl)c(N)n1", "note": "[lamotrigine]", "values": [{"measurement": "effect on the clinical effects of ketamine", "setting": "[1]", "result": "reverse the clinical effects of ketamine"}, {"measurement": "treatment response", "setting": "catatonic features; 10 out of 14 schizophrenic patients with catatonic features, non-secure settings, antipsychotic, lamotrigine, in some cases a benzodiazepine", "result": "marked treatment response"}, {"measurement": "effect of lamotrigine alone on catatonic features", "setting": "catatonic features; administration of lamotrigine alone", "result": "reduces catatonic features"}, {"measurement": "effect on catatonic features at lowest dose", "setting": "catatonic features; as little as 25 mg per day", "result": "meaningful reduction in catatonic features"}, {"measurement": "effect on catatonic features as the amount of lamotrigine was increased", "setting": "catatonic features; in some instances", "result": "complete remission of catatonic features"}, {"measurement": "subjects who responded", "setting": "catatonic features; of 20 confirmed cases of catatonia in secure residential settings, clozapine monotherapy with subsequent augmentation with lamotrigine", "result": 11}, {"measurement": "BFCRS score after treatment", "setting": "catatonic features; one patient, reduced from 14, olanzapine plan later augmented with lamotrigine", "result": 0}, {"measurement": "follow up BFCRS score", "setting": "catatonic features; one subject, non-secure setting, original BFCRS score 31, poor responder to clozapine and lorazepam, after augmentation with lamotrigine", "result": 0}, {"measurement": "BFCRS score after treatment", "setting": "catatonic features; one subject, secure residential setting, dropped from 17, 3 weeks after starting the combination therapy", "result": 11}, {"measurement": "response at full dosage", "setting": "catatonic features; titrated to a full dosage of 200 mg twice per day, paired with an antipsychotic", "result": "maximal responses"}]}, {"smiles": "CN1CCN(C2=Nc3cc(Cl)ccc3Nc3ccccc32)CC1", "note": "[clozapine, 8-chloro-11-(4-methylpiperazin-1-yl)-5H-dibenzo[b,e][1,4]diazepine]", "values": [{"measurement": "effect on the clinical effects of ketamine", "setting": "[1]", "result": "reverse the clinical effects of ketamine"}, {"measurement": "blood levels needed to achieve greater clinical efficacy", "setting": "[2]", "result": "≥ 400", "unit": "ng/dL"}]}]}
